Measurements: patent publication US9963448B2, “Bicyclic inhibitors of PAD4” (Padlock Therapeutics, Inc., priority 2015, dated 2018)
Where two headings read alike, the source gives them in different places.

Assays:
[1] = biological target: hPAD4 (Homo sapiens, UniProt Q9UM07); assay: hPAD4 RFMS (RapidFire mass spectrometry) PAD4 inhibition assay; format: biochemical; details: hPAD4 enzyme, RFMS readout;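 for hPAD4 RFMS pIC50: grade E means pIC50 at most 4 and F means pIC50 4.0 to 5.0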
Description: (§1) Compounds of the present invention were assayed as inhibitors of PAD4 using the assay protocol described below.
(§2) Compound stock solutions were stored at RT. […] Final assay conditions were as follows:
(§3) Total incubation time: 65 mins at 37° C.
(§4) Stop solution: 40 μl 5% TCA in ACN
(§5) The compound numbers correspond to the compound numbers in Table 1. […] The term pIC50=−log(IC50). […] “NA” stands for “not assayed.”

[2] = biological target: mPAD4 (Mus musculus, UniProt Q9Z183); assay: mPAD4 RFMS PAD4 inhibition assay; format: biochemical; details: mPAD4, RFMS readout;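 for mPAD4 RFMS pIC50: grade E means pIC50 at most 4 and F means pIC50 4.0 to 5.0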
Description: as §1, §2, §3, §4, §5

[3] = pIC50=−log(IC50), read-out: hPAD4 RFMS pIC50 (converted)
[4] = pIC50=−log(IC50), read-out: mPAD4 RFMS pIC50 (converted)

mPAD4, sequence (Q9Z183 whole entry): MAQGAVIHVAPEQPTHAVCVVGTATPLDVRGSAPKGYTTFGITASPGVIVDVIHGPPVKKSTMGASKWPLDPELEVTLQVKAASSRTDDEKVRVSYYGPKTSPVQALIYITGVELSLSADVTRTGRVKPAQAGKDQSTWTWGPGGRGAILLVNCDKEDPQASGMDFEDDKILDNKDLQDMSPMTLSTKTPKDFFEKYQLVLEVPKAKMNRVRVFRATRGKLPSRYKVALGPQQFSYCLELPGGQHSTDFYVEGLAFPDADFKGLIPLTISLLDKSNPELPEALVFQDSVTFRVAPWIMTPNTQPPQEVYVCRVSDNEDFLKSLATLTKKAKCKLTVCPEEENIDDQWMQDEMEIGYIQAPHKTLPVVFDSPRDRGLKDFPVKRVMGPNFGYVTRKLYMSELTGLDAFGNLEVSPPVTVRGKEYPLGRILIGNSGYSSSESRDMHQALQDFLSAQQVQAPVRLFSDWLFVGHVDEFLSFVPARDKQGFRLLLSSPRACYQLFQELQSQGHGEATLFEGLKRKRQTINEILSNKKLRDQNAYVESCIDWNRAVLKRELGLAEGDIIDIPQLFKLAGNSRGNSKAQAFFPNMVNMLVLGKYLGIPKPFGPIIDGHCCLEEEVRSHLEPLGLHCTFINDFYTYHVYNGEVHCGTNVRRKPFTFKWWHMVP
hPAD4, sequence (Q9UM07 whole entry): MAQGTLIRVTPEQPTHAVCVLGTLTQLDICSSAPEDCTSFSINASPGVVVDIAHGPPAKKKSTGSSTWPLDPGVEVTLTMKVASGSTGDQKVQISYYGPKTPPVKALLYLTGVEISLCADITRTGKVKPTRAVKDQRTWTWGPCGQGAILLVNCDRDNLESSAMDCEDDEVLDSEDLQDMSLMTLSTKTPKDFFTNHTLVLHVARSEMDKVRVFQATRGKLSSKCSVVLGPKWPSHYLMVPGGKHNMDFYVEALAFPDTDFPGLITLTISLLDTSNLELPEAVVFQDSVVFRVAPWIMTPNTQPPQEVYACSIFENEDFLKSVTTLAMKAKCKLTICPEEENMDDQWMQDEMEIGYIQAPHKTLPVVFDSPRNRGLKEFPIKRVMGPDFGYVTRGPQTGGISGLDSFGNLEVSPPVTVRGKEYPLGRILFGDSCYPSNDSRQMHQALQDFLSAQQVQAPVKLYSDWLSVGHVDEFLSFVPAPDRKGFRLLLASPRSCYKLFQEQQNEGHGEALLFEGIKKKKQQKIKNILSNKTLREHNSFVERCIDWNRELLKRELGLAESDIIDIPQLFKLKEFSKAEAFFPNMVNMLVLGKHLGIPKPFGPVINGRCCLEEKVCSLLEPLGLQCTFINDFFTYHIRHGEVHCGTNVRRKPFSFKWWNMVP

Structure (SMILES) | IC50 [1, 3] [µM] | IC50 ([1]; read-out: hPAD4 RFMS IC50) [µM] | IC50 [2, 4] [µM] | IC50 ([2]; read-out: mPAD4 RFMS IC50) [µM]
CCn1c(-c2nc3cc(C(=O)N4CCC[C@@H](N)C4)cc(F)c3n2C)cc2cccnc21 [Compound I-164] | 1 to 10 | 1 to 5 | 1 to 10 | 5 to 10
CCn1c(-c2nc3cc(C(=O)N4C[C@H]5CC[C@@H]4[C@@H]5N)cc(F)c3n2C)cc2cccnc21 [Compound I-165] | 1 to 10 | 1 to 5 | 1 to 10 | 1 to 5
Cn1c(-c2cc3cccnc3n2CC2CC2)nc2cc(C(=O)N3CCC[C@@H](N)C3)cc(F)c21 [Compound I-166] | < 1 | < 1 | 1 to 10 | 1 to 5
CCn1c(-c2nc3cc(C(=O)N4CCC[C@@H](N)C4)c(F)cc3n2C)cc2cccnc21 [Compound I-171] | 1 to 10 | 5 to 10 | 1 to 10 | 5 to 10
Cn1c(-c2cc3cccnc3n2CC2CC2)nc2cc(C(=O)N3CCC[C@@H](N)C3)c(F)cc21 [Compound I-172] | 1 to 10 | 1 to 5 | 1 to 10 | 1 to 5
CCn1c(-c2nc3cc(C(=O)N4C[C@H]5CC[C@@H]4[C@@H]5N)cc(OC)c3n2CC2CCOCC2)cc2cccnc21 [Compound I-173] | < 1 | < 1 | 1 to 10 | 1 to 5
CCn1c(-c2nc3cc(C(=O)N4CCC[C@@H](N)C4)cc(OC)c3n2CC2CCOCC2)cc2cccnc21 [Compound I-174] | 1 to 10 | 1 to 5 | 1 to 10 | 1 to 5
CCn1c(-c2nc3cc(C(=O)N4C[C@H]5CC[C@@H]4[C@@H]5N)cc(OC)c3n2CCOC)cc2cccnc21 [Compound I-175] | < 1 | < 1 | 1 to 10 | 1 to 5
CCn1c(-c2nc3cc(C(=O)N4CCC[C@@H](N)C4)cc(OC)c3n2CCOC)cc2cccnc21 [Compound I-176] | 1 to 10 | 1 to 5 | 1 to 10 | 1 to 5
COCCn1c(-c2cc3cccnc3n2CC2CC2)nc2cc(C(=O)N3CCC[C@@H](N)C3)cc(OC)c21 [Compound I-177] | 1 to 10 | 1 to 5 | < 1 | < 1
COCCn1c(-c2cc3cccnc3n2CC2CC2)nc2cc(C(=O)N3C[C@H]4CC[C@@H]3[C@@H]4N)cc(OC)c21 [Compound I-178] | < 1 | < 1 | < 1 | < 1
CCn1c(-c2nc3cc(C(=O)N4C[C@H]5CC[C@@H]4[C@@H]5N)cc(OC)c3n2CC2CC(F)(F)C2)cc2cccnc21 [Compound I-179] | < 1 | < 1 | 1 to 10 | 1 to 5
CCn1c(-c2nc3cc(C(=O)N4CCC[C@@H](N)C4)cc(OC)c3n2CC2CC(F)(F)C2)cc2cccnc21 [Compound I-180] | 1 to 10 | 1 to 5 | < 1 | < 1
COc1cc(C(=O)N2C[C@H]3CC[C@@H]2[C@@H]3N)cc2nc(-c3cc4cccnc4n3CC3CC3)n(C[C@H]3C[C@@](C)(OC)C3)c12 [Compound I-181] | < 1 | < 1 | < 1 | < 1
COc1cc(C(=O)N2CCC[C@@H](N)C2)cc2nc(-c3cc4cccnc4n3CC3CC3)n(C[C@H]3C[C@@](C)(OC)C3)c12 [Compound I-182] | < 1 | < 1 | < 1 | < 1
CCn1c(-c2nc3cc(C(=O)N4C[C@H]5CC[C@@H]4[C@@H]5N)cc(OC)c3n2C)cc2ccc(C(F)(F)F)nc21 [Compound I-183] | < 1 | < 1 | < 1 | < 1
